From BindingDB's records for doi:10.1016/j.bmc.2019.06.020 (Shanghai Jiao Tong University, 2019)

Legend:
[1] = target: T1, Polypeptide N-acetylgalactosaminyltransferase 2 (Homo sapiens, UniProt Q10471); experiment: Binding affinity of human recombinant FLAG-tagged ppGalNAcT2 expressed in HEK293 cells assessed as association rate by SPR analysis; settings: read-out: kon (M-1-s-1)
[2] = target: T1, Polypeptide N-acetylgalactosaminyltransferase 2; experiment: Binding affinity of human recombinant FLAG-tagged ppGalNAcT2 expressed in HEK293 cells assessed as dissociation rate by SPR analysis

T1 sequence (Q10471 whole entry): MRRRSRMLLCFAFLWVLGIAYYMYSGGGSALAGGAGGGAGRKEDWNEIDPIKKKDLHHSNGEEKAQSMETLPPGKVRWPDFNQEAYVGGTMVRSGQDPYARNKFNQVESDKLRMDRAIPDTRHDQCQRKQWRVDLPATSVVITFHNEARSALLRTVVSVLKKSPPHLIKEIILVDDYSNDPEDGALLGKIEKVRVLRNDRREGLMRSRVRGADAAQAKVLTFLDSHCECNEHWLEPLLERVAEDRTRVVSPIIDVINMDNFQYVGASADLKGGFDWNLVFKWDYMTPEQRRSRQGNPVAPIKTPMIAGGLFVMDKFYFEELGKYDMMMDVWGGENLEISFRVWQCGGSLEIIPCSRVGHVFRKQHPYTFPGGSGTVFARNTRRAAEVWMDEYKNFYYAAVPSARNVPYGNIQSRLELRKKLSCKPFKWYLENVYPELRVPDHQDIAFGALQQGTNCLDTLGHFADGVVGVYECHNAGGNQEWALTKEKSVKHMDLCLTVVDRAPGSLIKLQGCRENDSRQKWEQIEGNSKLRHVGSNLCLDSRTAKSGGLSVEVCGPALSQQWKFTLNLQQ

kon [1] | koff [2] | SMILES
3530 M⁻¹ s⁻¹ | 0.00104 s⁻¹ | O=c1oc2c(O)c(O)ccc2c2cc(O)c(O)cc12
2370 M⁻¹ s⁻¹ | 0.000879 s⁻¹ | O=c1oc2c(O)c(O)cc3c(=O)oc4c(O)c(O)cc1c4c23 [Elagic Acid]

SMILES | kon [1] | koff [2]
O=C(O)c1cc(O)c(O)c(O)c1 [Gallic Acid, F] | 1450 M⁻¹ s⁻¹ | 0.00134 s⁻¹
